We go through 23 compounds from US12637472B2, “Benzimidazole heteroatom-containing spiro compound and medicinal use thereof” (Changzhi University, priority 2023, dated 2026).

Like-named read-outs stand apart in the source and are kept apart here. Where only a bound is given, the exact number is not on record here.

Assay type in all cases: cell-based
Test [1] concerns human colon cancer cells HCT116. The experiment in a line: MTT in vitro cell proliferation inhibition experiment, HCT116. The conditions noted are these: 48 h contact between compound and cell, read-out: Antiproliferative activity (IC50, μM) HCT116. On the procedure:
(§1) Human liver tumor cells HepG2, human colon cancer cells HCT116, and human gastric adenocarcinoma cells AGS were purchased from the Institute of Basic Medical Sciences, Chinese Academy of Medical Sciences. The cells each were preserved and passaged in the laboratory of the present disclosure according to respective cultivation data. Each cell line was routinely inoculated in a 50 mL cell culture flask, and cultivated with a 10% fetal bovine serum-containing DMEM/IRP-1640 medium at 37° C., 5% CO2, and 100% humidity, where the medium was changed daily. When growing to a confluency of 80% to 90%, cells were digested with a mixture of trypsin and EDTA and passaged according to 1:3.
(§2) An in vitro cell activity and proliferation inhibition experiment was conducted by an MTT method to investigate an impact of a target compound on a survival activity of each cell. Cells at a logarithmic growth phase were inoculated at 5×10^3 cells (100 μL)/well in a 96-well culture plate and cultivated for 24 h, and then compound solutions with different concentrations prepared in advance were added (100 μL) to the plate. At least 3 replicate wells were set for each concentration. A solvent control group without a compound and a blank control group without a cell were set. Edge wells each were filled with 200 μL of sterilized water. […] A liquid in each well was completely removed carefully, 150 μL of DMSO was added to each well, the plate was gently shaken on a microshaker for 10 min to make a purple crystal fully dissolved, and then an absorbance value was determined at 570 nm by a microplate reader. With a cell viability of the solvent control group without a compound as 100%, a cell survival rate was calculated as follows: a cell survival rate=(an absorbance value of a compound group−an absorbance value of the blank control group)/(an absorbance value of the control group−an absorbance value of the blank control group)×100%. A half-maximal inhibitory concentration (IC50) of a compound for a cell was calculated by the Graphpad Prism 5 software.

Test [2] concerns Human liver tumor cells HepG2. Nature of the test: MTT in vitro cell proliferation inhibition experiment, HepG2. The conditions noted are these: MTT method, 48 h contact between compound and cell, read-out: Antiproliferative activity (IC50, μM) HepG2. How it is done:
as §1, §2
On the technique in general: Tetrazolium dyes change colour on reduction, which living cells bring about.

The test system of test [3] is human gastric adenocarcinoma cells AGS. Nature of the test: MTT in vitro cell proliferation inhibition experiment, AGS. To be noted: MTT method, 48 h contact between compound and cell, read-out: Antiproliferative activity (IC50, μM) AGS. How it is done:
as §1, §2

The mark [4] stands for this setting: Homo sapiens, HCT-116, MTT method.

Turning to `N.N.[Cl][Pt][Cl]` [Cisplatin, reference compound], the concentration for half-maximal inhibition (IC50) (as a rule, the concentration that inhibits the measured activity by half) in test [1] (MTT method) is 39.1 µM; in test [2] it was 43.2 µM; in test [3], 46 µM.
In the case of `O=C(c1nc2ccccc2[nH]1)C1C(C2CCCCC2)C2CCCN2C12C(=O)c1ccccc1C2=O` (stereo not drawn) [Compound 1, 2-(1H-benzimidazol-2-carbonyl)-1-cyclohexyl-1,2,5,6,7,7a-hexahydrospiroinden-2,3-pyrrolizine-1,3-dione], the results for the IC50 in test [1] (setting [4]), in test [2] (Homo sapiens) and in test [3] (Homo sapiens) were over 100 µM, over 100 µM and 40.8 µM, respectively.
In the case of `O=C(c1nc2ccccc2[nH]1)C1C(c2ccc(Cl)c(F)c2)C2CCCN2C12C(=O)c1ccccc1C2=O` (stereo not drawn) [Compound 2, 2-(1H-benzimidazol-2-carbonyl)-1-(3-fluoro-4-chlorophenyl)-1,2,5,6,7,7a-hexahydrospiro[inden-2,3-pyrrolizine]-1,3-dione], the IC50 in test [1] (setting [4]), in test [2] (Homo sapiens) and in test [3] (Homo sapiens) was over 100 µM in each case.
Take `O=C(c1nc2ccccc2[nH]1)C1C(c2ccc(Cl)cc2)C2CCCN2C12C(=O)c1ccccc1C2=O` (stereo not drawn) [Compound 3, 2-(1H-benzimidazol-2-carbonyl)-1-4-chlorophenyl-1,2,5,6,7,7a-hexahydrospiroinden-2,3-pyrrolizine-1,3-dione]: the IC50 was 26.2 µM in test [1] (setting [4]), over 100 µM in test [2] (Homo sapiens) and 30 µM in test [3] (Homo sapiens).
Regarding `Cc1ccc(C2C3CCCN3C3(C(=O)c4ccccc4C3=O)C2C(=O)c2nc3ccccc3[nH]2)cc1` (stereo not drawn) [Compound 4, 2-(1H-benzimidazol-2-carbonyl)-1-p-tolyl-1,2,5,6,7,7a-hexahydrospiroinden-2,3-pyrrolizine-1,3-dione], the half-inhibitory concentration (IC50) in test [1] (setting [4]) is 54.2 µM; in test [2] (Homo sapiens), over 100 µM; in test [3] (Homo sapiens) it was 17.1 µM.
As for `CCOc1ccc(C2C3CCCN3C3(C(=O)c4ccccc4C3=O)C2C(=O)c2nc3ccccc3[nH]2)cc1OCC` (stereo not drawn) [Compound 5, 2-(1H-benzimidazol-2-carbonyl)-3,4-diethoxyphenyl-1,2,5,6,7,7a-hexahydrospiroinden-2,3-pyrrolizine-1,3-dione], the IC50 amounted to 17.4 µM in test [1] (setting [4]), 80.7 µM in test [2] (Homo sapiens) and 36.9 µM in test [3] (Homo sapiens).
With `O=C(c1nc2ccccc2[nH]1)C1C(c2cccc(Br)c2)C2CCCN2C12C(=O)c1ccccc1C2=O` (stereo not drawn) [Compound 6, 2-(1H-benzimidazol-2-carbonyl)-1-3-bromophenyl-1,2,5,6,7,7a-hexahydrospiroinden-2,3-pyrrolizine-1,3-dione], the IC50 in test [1] (setting [4]) was 6.64 µM; in test [2] (Homo sapiens), 11.7 µM; in test [3] (Homo sapiens), 4 µM.
Regarding `CCOc1ccc(C2C3CCCN3C3(C(=O)c4ccccc4C3=O)C2C(=O)c2nc3ccccc3[nH]2)cc1` (stereo not drawn) [Compound 7, 2-(1H-benzimidazol-2-carbonyl)-1-(4-ethoxyphenyl)-1,2,5,6,7,7a-hexahydrospiroinden-2,3-pyrrolizine-1,3-dione], the figures for the IC50 in test [1] (setting [4]), in test [2] (Homo sapiens) and in test [3] (Homo sapiens) were 7.99 µM, 20.5 µM and 7.73 µM, respectively.
Regarding `O=C(c1nc2ccccc2[nH]1)C1C(c2ccc(Br)cc2)C2CCCN2C12C(=O)c1ccccc1C2=O` (stereo not drawn) [Compound 8, 2-(1H-benzimidazol-2-carbonyl)-1-4-bromophenyl-1,2,5,6,7,7a-hexahydrospiroinden-2,3-pyrrolizine-1,3-dione], the IC50 in test [1] (setting [4]) was 17.4 µM; in test [2] (Homo sapiens) it was over 100 µM; in test [3] (Homo sapiens) it was 25.7 µM.
For `CC(C)CC1NC2(C(=O)c3ccccc3C2=O)C(C(=O)c2nc3ccccc3[nH]2)C1C1CCCCC1` (stereo not drawn) [Compound 9, 3-(1H-benzimidazol-2-carbonyl)-4-cyclohexyl-5-isobutylspiro[inden-2,2′-pyrrolidine]-1,3-dione], the half-maximal inhibitory concentration (IC50) in test [1] (setting [4]) was 20.3 µM; in test [2] (Homo sapiens) it was over 100 µM; in test [3] (Homo sapiens), 69 µM.
With `CC(C)CC1NC2(C(=O)c3ccccc3C2=O)C(C(=O)c2nc3ccccc3[nH]2)C1c1ccc(Cl)c(F)c1` (stereo not drawn) [Compound 10, 3-(1H-benzimidazol-2-carbonyl)-4-(3-fluoro-4-chlorophenyl)-5-isobutylspiro[inden-2,2′-pyrrolidine]-1,3-dione], the IC50 turned out to be 15.7 µM in test [1] (setting [4]), 87.7 µM in test [2] (Homo sapiens) and 46.7 µM in test [3] (Homo sapiens).
Turning to `CC(C)CC1NC2(C(=O)c3ccccc3C2=O)C(C(=O)c2nc3ccccc3[nH]2)C1c1ccc(Cl)cc1` (stereo not drawn) [Compound 11, 3-(1H-benzimidazol-2-carbonyl)-4-(4-chlorophenyl)-5-isobutylspiro[inden-2,2′-pyrrolidine]-1,3-dione], the results for the IC50 in test [1] (setting [4]), in test [2] (Homo sapiens) and in test [3] (Homo sapiens) were 30.3 µM, over 100 µM and over 100 µM, respectively.
With `Cc1ccc(C2C(CC(C)C)NC3(C(=O)c4ccccc4C3=O)C2C(=O)c2nc3ccccc3[nH]2)cc1` (stereo not drawn) [Compound 12, 3-(1H-benzimidazol-2-carbonyl)-5-isobutyl-4-p-tolylspiro[inden-2,2′-pyrrolidine]-1,3-dione], the IC50 in test [1] (setting [4]) is 14.1 µM; in test [2] (Homo sapiens), over 100 µM; in test [3] (Homo sapiens) it was 42.7 µM.
In the case of `CCOc1ccc(C2C(CC(C)C)NC3(C(=O)c4ccccc4C3=O)C2C(=O)c2nc3ccccc3[nH]2)cc1OCC` (stereo not drawn) [Compound 13], the half-maximal inhibitory concentration (IC50) in test [1] (setting [4]), in test [2] (Homo sapiens) and in test [3] (Homo sapiens) was over 100 µM each time.
Regarding `CC(C)CC1NC2(C(=O)c3ccccc3C2=O)C(C(=O)c2nc3ccccc3[nH]2)C1c1cccc(Br)c1` (stereo not drawn) [Compound 14, 3-(1H-benzimidazol-2-carbonyl)-4-(3-bromophenyl)-5-isobutylspiro[inden-2,2′-pyrrolidine]-1,3-dione], the results for the IC50 in test [1] (setting [4]), in test [2] (Homo sapiens) and in test [3] (Homo sapiens) were 5.88 µM, 11.7 µM and 7.92 µM, respectively.
Regarding `CCOc1ccc(C2C(CC(C)C)NC3(C(=O)c4ccccc4C3=O)C2C(=O)c2nc3ccccc3[nH]2)cc1` (stereo not drawn) [Compound 15, 3-(1H-benzimidazol-2-carbonyl)-4-(4-ethoxyphenyl)-5-isobutylspiro[inden-2,2′-pyrrolidine]-1,3-dione], the 50% inhibitory concentration (IC50) in test [1] (setting [4]) was 28.8 µM; in test [2] (Homo sapiens) it was over 100 µM; in test [3] (Homo sapiens), 85.7 µM.
As for `CC(C)CC1NC2(C(=O)c3ccccc3C2=O)C(C(=O)c2nc3ccccc3[nH]2)C1c1ccc(Br)cc1` (stereo not drawn) [Compound 16, 3-(1H-benzimidazol-2-carbonyl)-4-(4-bromophenyl)-5-isobutylspiro[inden-2,2′-pyrrolidine]-1,3-dione], the IC50 in test [1] (setting [4]) turned out to be 10.8 µM; in test [2] (Homo sapiens), 49.7 µM; in test [3] (Homo sapiens), 20.9 µM.
In the same order, the values of `CCC(C)C1NC2(C(=O)c3ccccc3C2=O)C(C(=O)c2nc3ccccc3[nH]2)C1C1CCCCC1` (stereo not drawn) [Compound 17, 3-(1H-benzimidazol-2-carbonyl)-5-sec-butyl-4-cyclohexylspiro[inden-2,2′-pyrrolidine]-1,3-dione] are 11.1 µM, 16.2 µM and 14.7 µM.
In the same order, the values of `CCC(C)C1NC2(C(=O)c3ccccc3C2=O)C(C(=O)c2nc3ccccc3[nH]2)C1c1ccc(Cl)c(F)c1` (stereo not drawn) [Compound 18, 3-(1H-benzimidazol-2-carbonyl)-5-sec-butyl-4-(3-fluoro-4-chlorophenyl)spiro[inden-2,2′-pyrrolidine]-1,3-dione] are over 100 µM, over 100 µM and over 100 µM.
Regarding `CCC(C)C1NC2(C(=O)c3ccccc3C2=O)C(C(=O)c2nc3ccccc3[nH]2)C1c1ccc(Cl)cc1` (stereo not drawn) [Compound 19, 3-(1H-benzimidazol-2-carbonyl)-5-sec-butyl-4-(4-chlorophenyl)spiro[inden-2,2′-pyrrolidine]-1,3-dione], the half-inhibitory concentration (IC50) in test [1] (setting [4]) was 42.1 µM; in test [2] (Homo sapiens) it was over 100 µM; in test [3] (Homo sapiens), 87.5 µM.
For the compound `CCC(C)C1NC2(C(=O)c3ccccc3C2=O)C(C(=O)c2nc3ccccc3[nH]2)C1c1ccc(C)cc1` (stereo not drawn) [Compound 20, 3-(1H-benzimidazol-2-carbonyl)-5-sec-butyl-4-p-tolylspiro[inden-2,2′-pyrrolidine]-1,3-dione], the concentration for half-maximal inhibition (IC50) in test [1] (setting [4]) is 51.3 µM; in test [2] (Homo sapiens) it was over 100 µM; in test [3] (Homo sapiens), 94 µM.
For `CCOc1ccc(C2C(C(C)CC)NC3(C(=O)c4ccccc4C3=O)C2C(=O)c2nc3ccccc3[nH]2)cc1OCC` (stereo not drawn) [Compound 21], the figures for the IC50 in test [1] (setting [4]), in test [2] (Homo sapiens) and in test [3] (Homo sapiens) were 35.5 µM, 41.3 µM and 33.8 µM, respectively.
For the compound `CCC(C)C1NC2(C(=O)c3ccccc3C2=O)C(C(=O)c2nc3ccccc3[nH]2)C1c1cccc(Br)c1` (stereo not drawn) [Compound 22, 3-benzimidazol-2-carbonyl-4-(3-bromophenyl)-5-sec-butylspiro[inden-2,2′-pyrrolidine]-1,3-dione], the results for the IC50 in test [1] (setting [4]), in test [2] (Homo sapiens) and in test [3] (Homo sapiens) were 5.67 µM, 3.45 µM and 4.78 µM, respectively.
